Measured values: patent publication US20250352539A1, “COMBINATION THERAPY FOR TREATING CANCER” (AstraZeneca AB, priority 2022, published 2025)

Columns and labels:
Format in all cases: cell-based
BT-20 = test: 10-day Cell Titre Glo combination screen; conditions: Homo sapiens; BT-20 breast; monotherapy; read-out: mono AC50
Text: (§1) The Highest Single Agent (HSA) model is used to determine a combination's synergy score (and is based simply on the intuition that if a combination's effect exceeds the effect level of each of its constituents, there must be some combination interaction). Mathematically, the HSA model describes simple superposition of the single agent curves:
(§2) where CX,Y are the concentrations of the X and Y compound, and IX and IY are inhibitions of the single agents at CX,Y. It is also useful to calculate a volume score (HSA Volume) between the data and the HSA surface to characterise the overall strength of combination effects. Empirically derived combination matrices are compared to their respective HSA additivity models constructed from experimentally collected single agent dose response curves. Summation of this excess additivity across the dose response matrix is referred to HSA Volume.
(§3) Potency shifting can also be scored using combination index (CI). For a chosen iso-effect level (ICut), CI is calculated as: […]
(§4) where (CX/ECX) for a particular data point is the ratio of the X compound's measured concentration to its effective concentration at the chosen effect level. The CI is a rough estimate of how much drug was needed in combination relative to the single agent doses required to achieve the chosen effect level. CI values in the range of 0.5-0.7 are typical for in vitro measurements of current clinical combinations. The CI error (σCI) is calculated using standard error propagation through the CI calculation based on the isobologram errors.
(§5) This combination screen was a 10-day assay using Cell Titre Glo as the readout for viability.
(§6) The assay was performed in 384 well plates, with 1 cell line and 4 drug-drug combinations per plate dosed in a 6×6 matrix. A day zero reading was measured to determine growth inhibition. GenedataScreener was used to input the raw values for every well, and the software was programmed to normalise the values to the day zero and DMSO control values.
(§7) The CellTiter-Glo® Luminescent Cell Viability Assay is a homogeneous method to determine the number of viable cells in culture based on quantitation of the ATP present, which signals the presence of metabolically active cells. It relies on the properties of a proprietary thermostable luciferase (Ultra-Glo™ Recombinant Luciferase), which generates a stable “glow-type” luminescent signal and improves performance across a wide range of assay conditions.
(§8) The following information was reported: Synergy scores (HSA); combination index values; AC50 (half-maximal activity concentration) monotherapy values.

DMS53 = test: 10-day Cell Titre Glo combination screen; conditions: Homo sapiens, DMS-53; DMS53 lung; monotherapy; read-out: mono AC50
Text: as §1, §2, §3, §4, §5, §6, §7, §8

EFM-19 = test: 10-day Cell Titre Glo combination screen; conditions: Homo sapiens; EFM-19 breast; monotherapy; read-out: mono AC50
Text: as §1, §2, §3, §4, §5, §6, §7, §8

HCC1395 = test: 10-day Cell Titre Glo combination screen; conditions: Homo sapiens; HCC1395 breast; monotherapy; read-out: mono AC50
Text: as §1, §2, §3, §4, §5, §6, §7, §8

HCC15 = test: 10-day Cell Titre Glo combination screen; conditions: HCC15 lung; monotherapy; read-out: mono AC50
Text: as §1, §2, §3, §4, §5, §6, §7, §8

HCC1806 = test: 10-day Cell Titre Glo combination screen; conditions: Homo sapiens; HCC1806 breast; monotherapy; read-out: mono AC50
Text: as §1, §2, §3, §4, §5, §6, §7, §8

HCC1937 = test: 10-day Cell Titre Glo combination screen; conditions: Homo sapiens; HCC1937 breast; monotherapy; read-out: mono AC50
Text: as §1, §2, §3, §4, §5, §6, §7, §8

HCC1954 = test: 10-day Cell Titre Glo combination screen; conditions: Homo sapiens; HCC1954 breast; monotherapy; read-out: mono AC50
Text: as §1, §2, §3, §4, §5, §6, §7, §8

JIMT-1 = test: 10-day Cell Titre Glo combination screen; conditions: Homo sapiens; JIMT-1 breast; monotherapy; read-out: mono AC50
Text: as §1, §2, §3, §4, §5, §6, §7, §8

MCF7 T52 = test: 10-day Cell Titre Glo combination screen; conditions: Homo sapiens; MCF7 T52 breast; monotherapy; read-out: mono AC50
Text: as §1, §2, §3, §4, §5, §6, §7, §8

MDA-MB-231 = test: 10-day Cell Titre Glo combination screen; conditions: Homo sapiens; MDA-MB-231 breast; monotherapy; read-out: mono AC50
Text: as §1, §2, §3, §4, §5, §6, §7, §8

NCI-H1666 = test: 10-day Cell Titre Glo combination screen; conditions: Homo sapiens; NCI-H1666 lung; monotherapy; read-out: mono AC50
Text: as §1, §2, §3, §4, §5, §6, §7, §8

NCI-H2009 = test: 10-day Cell Titre Glo combination screen; conditions: Homo sapiens; NCI-H2009 lung; monotherapy; read-out: mono AC50
Text: as §1, §2, §3, §4, §5, §6, §7, §8

NCI-H2291 = test: 10-day Cell Titre Glo combination screen; conditions: Homo sapiens; NCI-H2291 lung; monotherapy; read-out: mono AC50
Text: as §1, §2, §3, §4, §5, §6, §7, §8

SK-BR-3 = test: 10-day Cell Titre Glo combination screen; conditions: Homo sapiens; SK-BR-3 breast; monotherapy; read-out: mono AC50
Text: as §1, §2, §3, §4, §5, §6, §7, §8

T47D = test: 10-day Cell Titre Glo combination screen; conditions: Homo sapiens; T47D breast; monotherapy; read-out: mono AC50
Text: as §1, §2, §3, §4, §5, §6, §7, §8

T98G = test: 7 days treatment combination assay in glioblastoma cell lines (Hoeschst positive nuclei count); conditions: Homo sapiens, 168 h, Adult GBM
Procedure: (§9) The assay was carried out in the following glioblastoma cell lines: • U87 • U87 R132H • T98G • SJ-G2 ctrl • SJ-G2 IDH using AZD6738 and AZD9574
(§10) The cells were seeded the day before drug treatment in 150 μl per well of 96-well plate. For SJ-G2 cells, the plates were coated with poly-Lysine solution for 15 minutes, washed twice with sterile water and dried for 1 hour.
(§11) The seeding numbers were (cells per well): U87-500; T98G-500; SJ-G2 ctrl-1000; SJ-G2 IDH.
(§12) The compounds were added via a drug dispenser according to the following scheme:
(§13) after 7 Days: • (a) for SJ-G2, 75 μl Cell Titer Glow 2.0 solution (Promega) was added and incubated for 15 minutes at 37° C. The cells were then read using a plate reader. • (b) for U87 and T98G, 75 μl of 37% formaldehyde was added and fixed for 20 minutes at room temperature. This was then washed twice with PBS, followed by Hoeschst staining for 1 hour at room temperature (Hoeschst 1:10000 in PBS). This was then washed twice in PBS and the plates sealed. The plates were then imaged on Cell Insight with 10× magnification at the 25 position. Hoeschst positive nuclei were identified as objects, and cell survival was analysed by counting objects (Hoeschst positive nuclei) with the corresponding settings for U87 or T98G.
(§14) An analysis of drug synergy was then carried out to yield a HSA score

U87 IDH WT = test: as above; conditions: 168 h, Adult GBM
Procedure: as §9, §10, §11, §12, §13, §14

U87 IDHm = test: as above; conditions: 168 h, Adult GBM
Procedure: as §9, §10, §11, §12, §13, §14

C[C@@H]1COCCN1c1cc(C2([S@](C)(=N)=O)CC2)nc(-c2ccnc3[nH]ccc23)n1 [AZD6738, 4-{4-[(3R)-3-Methylmorpholin-4-yl]-6-[1-((R)—S-methylsulfonimidoyl)cyclopropyl]pyrimidin-2-yl}-1H-pyrrolo[2,3-b]-pyridine]
AC50 (BT-20): 0.723 µM
AC50 (DMS53): 2.18 µM
AC50 (EFM-19): 14.3 µM
AC50 (HCC1395): 0.814 µM
AC50 (HCC15): 7.02 µM
AC50 (HCC1806): 0.412 µM
AC50 (HCC1937): 0.57 µM
AC50 (HCC1954): 2.56 µM
AC50 (JIMT-1): 0.869 µM
AC50 (MCF7 T52): 1.39 µM
AC50 (MDA-MB-231): 0.866 µM
AC50 (NCI-H1666): 0.767 µM
AC50 (NCI-H2009): 1.02 µM
AC50 (NCI-H2291): 1.12 µM
AC50 (SK-BR-3): 0.542 µM
AC50 (T47D): 6.85 µM
IC50 (T98G): 0.213 µM
IC50 (U87 IDH WT): 0.649 µM
IC50 (U87 IDHm): 0.766 µM
